We go through 1 compound from US7598419B2, “Compounds for modulating cell proliferation” (HSC Research and Development Limited Partnership, priority 2004, dated 2009).

For the assay, the system named is HuNS1 multiple myeloma cells. The experiment in a line: Colony assay of HuNS1 cells in culture. To be noted: colonies at 5-6 days, FIG. 19, read-out: inhibition of HuNS1 cell proliferation and survival. The format is cell-based. The procedure: HuNS1 cells were plated in 35 mm petri dishes (Nunc, Gibco) in 1 ml volumes at a density of 1×10^4 cells/ml, in the absence of exogenous growth factors, containing alpha MEM plus 20% FCS (Cansera, Rexdale Ont.), and 0.9% (vol/vol) methylcellulose (Fluka, Switzerland) and the indicated concentrations of CR4. Cell cultures were incubated in a humidified atmosphere at 37° C. with 5% CO2. Colonies containing more than 20 cells were scored, using an inverted microscope, at 5-6 days.

Each structure is given as a SMILES string.

With `N#C/C(=C\C=C\c1ccc(O)c(O)c1)C(=O)NCc1ccccc1` [CR4, (E,E)-2-(Benzylaminocarbonyl)-3-(3,4-dihydroxystyryl)acrylonitrile], the inhibition at 2.5 µM was greater than 90%.
